Data reported in patent US20040235931A1, “Inhibition of herpes virus replication” (priority 2003, published 2004).

Legend:
Vero cells = test: MTT toxicity assay in Vero cells; format: cell-based, African green monkey; settings: MTT, 24, 48 and 72 hours
Experimental: (§1) African green monkey kidney cells (Vero) and Human neonatal lung fibroblasts cells (MRC-5) were obtained from the American Type Culture Collection, (Rockville, Md.). Vero cells were grown and maintained in Medium 199 supplemented with 5% fetal bovine serum, 0.075% NaHCO3 and 50 μg/ml gentamycin sulfates. MRC-5 cells were grown and maintained in Minimal Essential Medium with Earle's Balanced Salt Solution containing 2 mM L-glutamine supplemented with 10% fetal bovine serum, 0.lmM nonessential amino acids, 1 mM sodium pyruvate, 2% sodium bicarbonate and 50 μg/ml gentamycin sulfate.
(§2) Cells were exposed to drug treated media of varying concentrations. […] I3C concentrations used in these studies were 50% and 75% of the CD50. Cells were seeded onto a 96 well at 10,000 cells/well and grown for 24 hours. Twelve different serially diluted concentrations of I3C were then incubated with the cells for 24, 48 and 72 hours and colorimetric readings were taken at these time points using the MTT reagent. Controls included in the 96 well plate were, media alone that contained no cells but with I3C, media with cells but no I3C, and plain media with 0.2% DMSO and no cells or drug. At 24, 48 and 72 hours a sigmoidal curve was generated for each time period and the data analyzed. Approximately, 500 μM was the concentration at which 50 percent of the cells died (CD50).

MRC-5 cells = test: MTT toxicity assay in MRC-5 cells; format: cell-based, Human; settings: MTT, 24, 48 and 72 hours
Experimental: as §1, §2

HSV-1 [1] = test: HSV-1 replication in Vero cells, plaque forming units (pfu) titration; format: cell-based, herpes simplex virus type 1 (HSV-1)
Experimental: Cultures of African green monkey kidney cells (Vero) cells, obtained from the American Type Culture Collection, Rockville, Md., were grown to confluence in Medium 199 supplemented with 5% fetal bovine serum, 0.075% NaHCO3, and 50 μg/ml gentamycin sulfate in 25 cm^2 tissue culture flasks. Cells were infected with HSV-1 at a multiplicity of infection (moi) of one and incubated at room temperature for one hour to allow for virus attachment to and penetration of the cell. Under these conditions, approximately half of the cells are infected with virus. Thereafter, the cultures were rinsed three time with media and incubated in medium containing 133 μM, 267 μM, or 400 μM I3C prepared in 0.2% dimethyl-sulfoxide (DMSO). Controls were treated identically, but were incubated without the I3C.
Upon addition of the medium to the cultures and at 24 hours time periods thereafter, i.e., 0 hours, 24 hours, 48 hours, and 72 hours after addition of the drug, cells and medium were frozen at −70° C. Samples were then thawed, sonicated and titrated on Vero cells to determine the number of plaque forming units (pfu's) of virus produced by each culture.
Vero cell cultures were infected with HSV-1 as described above in Example 1 except that the cells were treated with 267 μM of I3C for 6, 12, or 24 hours prior to infection. Cells were infected with HSV-1 at an moi of 1 for 1 hour. Following removal of the unabsorbed virus, the infected cells were incubated in media containing 0.2% DMSO (control cells) or in media containing 267 μM of I3C (test cells) At 24, 48, and 72 hours after infection, the number of pfu's present in the cells and medium of the I3C -treated cultures was determined.

[2] = tested on: acyclovir resistant HSV-1; test: Acyclovir-resistant HSV-1 replication in Vero cells, pfu determination; format: cell-based, herpes simplex virus type 1 (HSV-1)
Experimental: Vero cell cultures were infected with acyclovir resistant HSV-1 at an moi of one for one hour. Test cells were treated with 267 μM of I3C immediately after or 24 hours prior to infection. At 24, 48, and 72 hours after infection, the number of pfu's present in the test cell pre-treated with I3C or treated with I3C post infection were determined.

HSV-2 = HSV-2 replication in Vero cells, pfu determination; format: cell-based, herpes simplex virus type 2 (HSV-2); settings: 267 μM I3C
Experimental: Vero cell cultures that had been pretreated with 267 μM of I3C were infected with HSV-2 at an moi of one for 1 hour At 24, 48, and 72 hours after infection, the number of pfu's present in the cells and medium of the I3C pre-treated cultures were determined. In addition, Vero cells were infected with HSV-2 at an moi of one for 1 hour, and thereafter the cultures were rinsed three time with media and incubated in medium containing 267 μM prepared in 0.2% dimethyl-sulfoxide (DMSO). At 24, 48, and 72 hours after infection, the number of pfu's present in the test cell pre-treated with I3C or treated with I3C post infection were determined.

HSV-1 [3] = test: HSV-1 replication in MRC-5 cells, pfu determination; format: cell-based, herpes simplex virus type 1 (HSV-1); settings: 375 μM I3C, pretreatment for 24 or 36 hours prior to infection
Experimental: MRC-5 cell cultures were infected with HSV-1 as described above in Example 1 except that the cells were treated with 375 μM of I3C following infection or for 12, 24, or 36 hours prior to infection. Cells were infected with HSV-1 at an moi of 1 for 1 hour. Following removal of the unabsorbed virus, the infected cells were incubated in media containing 0.2% DMSO (control cells) or in media containing 375 μM of I3C (test cells) At 24, 48, and 72 hours after infection, the number of pfu's present in the cells and medium of the cultures treated with I3C prior to or after infection was determined.

HSV = test: Direct inactivation of HSV by incubation with I3C, plaque assay; settings: HSV mixed with I3C solution (267 μM); 1, 10, 30 and 60 minutes; compared to control virus
Experimental: To determine if I3C could directly inactivate […] studies were done in which HSV was mixed with a solution of I3C (267 μM). Samples were taken at 1, 10, 30 and 60 minutes and the presence of infectious virus determined by the plaque assay.

Question: With OCc1c[nH]c2ccccc12 [I3C, indole-3-carbinol] as the compound, how does the “CD50 (concentration at which 50 percent of the cells died)” value (Vero cells) read?
Answer: The value was about 500 µM.

Question: What about the “CD50 (concentration at which 50 percent of the cells died)” value (MRC-5 cells) of the same compound?
Answer: The value was about 500 µM.

Question: What about the “inhibition of HSV replication” value (HSV-1 [1]; 267 μM I3C, Vero cells incubated 12 to 24 hours prior to infection) of the same compound?
Answer: Its value is “dramatic and complete”.

Question: What about the HSV replication (HSV-1 [1]; 267 μM I3C, Vero cells pre-incubated 6 hours prior to infection, 24, 48, 72 hours after infection) of the same compound?
Answer: Its HSV replication is “proceeded at a reduced rate for 24 hours and then rapidly decreased at 48 and 72 hours to undetectable levels”.

Question: And the “infectious HSV particles in cultures” value (HSV-1 [1]; 400 μM I3C continuously post infection, Vero cells, by 72 hours)?
Answer: The value was “virtually undetectable”.

Question: What about the “inhibition of formation of infectious virus particles” value (HSV-1 [1]; 400 μM I3C post infection, Vero cells, moi 1, at 24 hours) of the same compound?
Answer: Its value is “more than 99%”.

Question: And the “dose dependence of inhibition of virus replication” value (HSV-1 [1]; 133, 267, 400 μM I3C post infection, Vero cells)?
Answer: Its value is “dose dependent”.

Question: And the “replication of acyclovir-resistant HSV” value ([2]; 267 μM I3C post infection, Vero cells, 24, 48, 72 hours after infection)?
Answer: The value was “proceeded at a reduced rate for 24 hours and then rapidly decreased at 48 and 72 hours to undetectable levels”.

Question: What about the “inhibition of acyclovir-resistant HSV 1 replication” value ([2]; 267 μM I3C, Vero cells incubated 24 hours prior to infection) of the same compound?
Answer: The value was “dramatic and complete”.

Question: And the “HSV-2 replication, first 24 hours” value (HSV-2; Vero cells treated 24 hours pre-infection)?
Answer: Its value is “proceeded at a reduced rate for 24 hours”.

Question: And the “HSV-2 replication, first 24 hours” value (HSV-2; Vero cells treated post infection)?
Answer: Its value is “proceeded at a reduced rate for 24 hours”.

Question: What about the “HSV-2 replication at 48 and 72 hours” value (HSV-2; post-treated Vero cells) of the same compound?
Answer: The value was “decreased at 48 and 72 hours”.

Question: And the “HSV-2 replication at 48 and 72 hours” value (HSV-2; pre-treated Vero cells)?
Answer: Its value is “decreased at 48 and 72 hours”.

Question: What about the “HSV-1 replication in MRC5 cells” value (HSV-1 [3]) of the same compound?
Answer: The value was “inhibition of HSV-1 replication”.

Question: And the “direct inactivation of HSV” value (HSV)?
Answer: Its value is “no significant inactivation of HSV”.
